We go through 7 molecules from patent US20230416692A1 (BOARD OF REGENTS, THE UNIVERSITY OF TEXAS SYSTEM, priority 2020, published 2023).

Read-outs that look alike come from different tables or passages of the source.

In series [1] the test system is SARS-CoV-2-Nluc. Description: microbe, parasite or virus in culture. Format: cell-based.
A further series relates to A549-hACE2 cells. Conditions: human.
The subject of series [2] is SARS-CoV-2-Nluc. Description: microbe, parasite or virus in culture. Format: cell-based. This is another data set of the same source.
For another series, the system named is plasma protein. Conditions: data from literature; cited from earlier work.
For series [3] the following is noted: human exposures in the clinics, cited from earlier work; for Cmax: read-out: Exposure (μM): Cmax.
The test system of the next series is COVID-19. The settings on record: human, in vivo; cited from earlier work.
The test system of another series is icSARS-CoV-2-mNG. Format: cell-based, SARS-CoV-2.
Setting [4] is: Severe acute respiratory syndrome coronavirus 2, Vero C1008.
Where [5] appears, read: Severe acute respiratory syndrome coronavirus 2, Vero C1008, 48 h.
Where [6] appears, read: Severe acute respiratory syndrome coronavirus 2.
The mark [7] stands for this setting: Severe acute respiratory syndrome coronavirus 2, 48 h.

What is called EC50 is the midpoint of the concentration-response curve. High values mean weaker potency, low ones greater potency. The term CC50 denotes the concentration giving 50% cytotoxicity. A higher CC50 goes with lower toxicity to the cells. For `CCN(CC)CCCC(C)Nc1ccnc2cc(Cl)ccc12` (stereo not drawn) [Chloroquine], the EC50 in the series on SARS-CoV-2-Nluc [1] (setting [4]) was 3520 nM; with SARS-CoV-2-Nluc [1] (setting [5]) it was 3520 nM; in the series on SARS-CoV-2-Nluc [2] (setting [6]), 1320 nM; in the series with SARS-CoV-2-Nluc [2] (setting [7]), 1320 nM. Further, in the series with A549-hACE2 cells, the 50% cytotoxic concentration (CC50) was over 50 µM.
Consider `CCC(CC)COC(=O)[C@H](C)N[P@](=O)(OC[C@H]1O[C@@](C#N)(c2ccc3c(N)ncnn23)[C@H](O)[C@@H]1O)Oc1ccccc1` [Remdesivir], for which the EC50 in the series on SARS-CoV-2-Nluc [1] (setting [4]) came out at 1280 nM; with SARS-CoV-2-Nluc [1] (setting [5]), 1280 nM; in the series on SARS-CoV-2-Nluc [2] (setting [6]), 115 nM; in the series on SARS-CoV-2-Nluc [2] (setting [7]) it was 115 nM. For the same molecule, the “SI (selectivity index)” value in the series with SARS-CoV-2-Nluc [2] turned out to be 284.
One may read the Cmax as the maximum level reached in the sampled fluid or tissue. As for `CC(C)OC(=O)[C@H](C)N[P@](=O)(CO[C@H](C)Cn1cnc2c(N)ncnc21)Oc1ccccc1` [Tenofovir alafenamide], the “Plasma protein binding (%)” value in the series with plasma protein was 80%. The molecule further showed a CC50 with A549-hACE2 cells of over 50 µM. Also, the “activity against SARS-CoV-2-Nluc (in words)” value in the series with SARS-CoV-2-Nluc [2] is “inactive”. The EC50 in the series on SARS-CoV-2-Nluc [2] (setting [7]) is over 10000 nM. Also, the Cmax in series [3] is 0.4 µM.
As for `CCC[C@@]1(CCc2ccccc2)CC(O)=C([C@H](CC)c2cccc(NS(=O)(=O)c3ccc(C(F)(F)F)cn3)c2)C(=O)O1` [Tipranavir], the “Plasma protein binding (%)” value in the series with plasma protein is given as 99.9%. In addition, in the series on A549-hACE2 cells, half-maximal cytotoxicity (CC50) was put at 28.4 ± 0.5 µM. In addition, in the series on SARS-CoV-2-Nluc [2], the EC50 stood at 8650 ± 160 nM and the “SI (selectivity index)” value stood at 3.3. The same molecule gave an EC50 in the series on SARS-CoV-2-Nluc [2] (setting [7]) of 8000 to 9000 nM. Also, in series [3], the “Exposure (μM): Cmin” value is 30.8 µM and the Cmax is 130 µM.
For `CC[C@H]1OC(=O)[C@H](C)[C@@H](O[C@H]2C[C@@](C)(OC)[C@@H](O)[C@H](C)O2)[C@H](C)[C@@H](O[C@@H]2O[C@H](C)C[C@H](N(C)C)[C@H]2O)[C@](C)(O)C[C@@H](C)CN(C)[C@H](C)[C@@H](O)[C@]1(C)O` [azithromycin], the “fatality rate among hospitalized patients (in words)” value with COVID-19 is on record as “not associated with significant differences in fatality rate”.
For `CCN(CCO)CCCC(C)Nc1ccnc2cc(Cl)ccc12` (stereo not drawn) [hydroxychloroquine], the “fatality rate among hospitalized patients (in words)” value with COVID-19 was “not associated with significant differences in fatality rate”.
IFN-α: in the series on icSARS-CoV-2-mNG, the “EC50 (concentration inhibiting 50% of viral replication)” value is given as 101 u/ml, the “mNG expression (visual)” value is “No mNG expression was visually observed” and the mNG signal entry was “dose-dependent reduction of mNG signal”.
